These are literature values, as cited in PubChem BioAssay AID1259409 (Chemical Carcinogenesis Research Information System (CCRIS), 2018).

The structures appear in SMILES notation.

The data set concerns rodent chemically induced tumor inhibition, incidence and multiplicity. The data set is described as follows: CCRIS tumor inhibitor studies. The conditions noted are these: Species: MOUSE, Promoter: NONE USED.

For the compound `O.O.O.O.O.[Cd+2].[Cd+2].[Cl-].[Cl-].[Cl-].[Cl-]`, the “tumour outcome (control, treated, inhibition, significance)” value by setting is: (Carcinogen: NITROSODIETHYLAMINE, 55-18-5, Dose [Inhibitor]: 0, 1000 PPM IN DRINKING WATER BEGINNING 2 WK POST CARCINOGEN DOSE AND CONTINUING FOR DURATION OF STUDY (STUDY DURATION:, Route [Inhibitor]: ORAL, Strain/Sex: B6C3F1/MALE, Target Tissue: Type of Lesion: LIVER: TUMOR, Dose [Carcinogen]: 5 MG/ML IN TRICAPRYLIN ONCE AT 5 WK OF AGE) 22/25 (88%), 2/25 (8%), 91%, p<0.05; (Carcinogen: NITROSODIETHYLAMINE, 55-18-5, Dose [Inhibitor]: 0, 1000 PPM IN DRINKING WATER BEGINNING 2 WK POST CARCINOGEN DOSE AND CONTINUING FOR DURATION OF STUDY (STUDY DURATION:, Route [Inhibitor]: ORAL, Strain/Sex: B6C3F1/MALE, Target Tissue: Type of Lesion: LUNG: TUMOR, Dose [Carcinogen]: 5 MG/ML IN TRICAPRYLIN ONCE AT 5 WK OF AGE) 100%, 94%, 6%, not significant; (Carcinogen: NITROSODIETHYLAMINE, 55-18-5, Dose [Inhibitor]: 0, 1000 PPM IN DRINKING WATER BEGINNING 4 WK POST CARCINOGEN DOSE AND CONTINUING FOR DURATION OF STUDY (STUDY DURATION:, Route [Inhibitor]: ORAL, Strain/Sex: B6C3F1/MALE, Target Tissue: Type of Lesion: LIVER: TUMOR, Dose [Carcinogen]: 5 MG/ML IN TRICAPRYLIN ONCE AT 5 WK OF AGE) 22/25 (88%), 1/25 (4%), 95%, p<0.05; (Carcinogen: NITROSODIETHYLAMINE, 55-18-5, Dose [Inhibitor]: 0, 1000 PPM IN DRINKING WATER BEGINNING 4 WK POST CARCINOGEN DOSE AND CONTINUING FOR DURATION OF STUDY (STUDY DURATION:, Route [Inhibitor]: ORAL, Strain/Sex: B6C3F1/MALE, Target Tissue: Type of Lesion: LUNG: TUMOR, Dose [Carcinogen]: 5 MG/ML IN TRICAPRYLIN ONCE AT 5 WK OF AGE) 100%, 94%, 6%, not significant; (Carcinogen: NITROSODIETHYLAMINE, 55-18-5, Dose [Inhibitor]: 0, 1000 PPM IN DRINKING WATER BEGINNING 8 WK POST CARCINOGEN DOSE AND CONTINUING FOR DURATION OF STUDY (STUDY DURATION:, Route [Inhibitor]: ORAL, Strain/Sex: B6C3F1/MALE, Target Tissue: Type of Lesion: LIVER: TUMOR, Dose [Carcinogen]: 5 MG/ML IN TRICAPRYLIN ONCE AT 5 WK OF AGE) 22/25 (88%), 1/25 (4%), 95%, p<0.05; (Carcinogen: NITROSODIETHYLAMINE, 55-18-5, Dose [Inhibitor]: 0, 1000 PPM IN DRINKING WATER BEGINNING 8 WK POST CARCINOGEN DOSE AND CONTINUING FOR DURATION OF STUDY (STUDY DURATION:, Route [Inhibitor]: ORAL, Strain/Sex: B6C3F1/MALE, Target Tissue: Type of Lesion: LUNG: TUMOR, Dose [Carcinogen]: 5 MG/ML IN TRICAPRYLIN ONCE AT 5 WK OF AGE) 100%, 89%, 11%, not significant. The “tumour outcome (control, treated, inhibition, significance)” value by setting is: (Carcinogen: NITROSODIETHYLAMINE, 55-18-5, Dose [Inhibitor]: 0, 1000 PPM IN DRINKING WATER BEGINNING 16 WK POST CARCINOGEN DOSE AND CONTINUING FOR DURATION OF STUDY (STUDY DURATION:, Route [Inhibitor]: ORAL, Strain/Sex: B6C3F1/MALE, Target Tissue: Type of Lesion: LIVER: TUMOR, Dose [Carcinogen]: 5 MG/ML IN TRICAPRYLIN ONCE AT 5 WK OF AGE) 22/25 (88%), 2/25 (8%), 91%, p<0.05; (Carcinogen: NITROSODIETHYLAMINE, 55-18-5, Dose [Inhibitor]: 0, 1000 PPM IN DRINKING WATER BEGINNING 16 WK POST CARCINOGEN DOSE AND CONTINUING FOR DURATION OF STUDY (STUDY DURATION:, Route [Inhibitor]: ORAL, Strain/Sex: B6C3F1/MALE, Target Tissue: Type of Lesion: LUNG: TUMOR, Dose [Carcinogen]: 5 MG/ML IN TRICAPRYLIN ONCE AT 5 WK OF AGE) 100%, 72%, 28%, p<0.05; (Carcinogen: NITROSODIETHYLAMINE, 55-18-5, Dose [Inhibitor]: 0, 1000 PPM IN DRINKING WATER BEGINNING 32 WK POST CARCINOGEN DOSE AND CONTINUING FOR DURATION OF STUDY (STUDY DURATION:, Route [Inhibitor]: ORAL, Strain/Sex: B6C3F1/MALE, Target Tissue: Type of Lesion: LIVER: TUMOR, Dose [Carcinogen]: 5 MG/ML IN TRICAPRYLIN ONCE AT 5 WK OF AGE) 22/25 (88%), 6/24 (25%), 72%, p<0.05; (Carcinogen: NITROSODIETHYLAMINE, 55-18-5, Dose [Inhibitor]: 0, 1000 PPM IN DRINKING WATER BEGINNING 32 WK POST CARCINOGEN DOSE AND CONTINUING FOR DURATION OF STUDY (STUDY DURATION:, Route [Inhibitor]: ORAL, Strain/Sex: B6C3F1/MALE, Target Tissue: Type of Lesion: LUNG: TUMOR, Dose [Carcinogen]: 5 MG/ML IN TRICAPRYLIN ONCE AT 5 WK OF AGE) 100%, 96%, 4%, not significant.

On to `Cn1cnc2[nH]c(=O)[nH]c(=O)c21`, for which the “tumour outcome (control, treated, inhibition, significance)” value is reported as 31/59 (53%), 18/48 (38%), 28%, p 0.12 (Carcinogen: URETHANE, 51-79-6, Dose [Inhibitor]: 0.05 UMOL/G BW GIVEN AT 6 HR INTERVALS DURING THE PERIOD OF 0 TO 36 HR AFTER CARCINOGEN TREATMENT FOLLOWED BY 5 MO OBSER, Route [Inhibitor]: INTRAPERITONEAL, Strain/Sex: ICR/FEMALE, Target Tissue: Type of Lesion: LUNG: PAPILLARY ADENOMA, Dose [Carcinogen]: 0.1 MG/G BW ONCE) and 49/53 (93%), 43/62 (69%), 26%, p<0.01 (Carcinogen: URETHANE, 51-79-6, Dose [Inhibitor]: 0.25 UMOL/G BW 1/D DURING THE PERIOD OF 5 TO 9 D AFTER CARCINOGEN TREATMENT FOLLOWED BY OBSERVATION PERIOD UNTIL END OF, Route [Inhibitor]: INTRAPERITONEAL, Strain/Sex: ICR/FEMALE, Target Tissue: Type of Lesion: LUNG: PAPILLARY ADENOMA, Dose [Carcinogen]: 1 MG/G BW ONCE).

Regarding `C#C[C@]1(O)CC[C@H]2[C@@H]3CCC4=CC(=O)CC[C@@H]4[C@H]3CC[C@@]21CC` (tested in a mixture with another compound), the “tumour outcome (control, treated, inhibition, significance)” value (Carcinogen: 3-METHYLCHOLANTHRENE, 56-49-5, Dose [Inhibitor]: 0, 1/200 OF A PILL CONTAINING 0.25 UG ETHINYLESTRADIOL AND 2.5 UG NORGESTREL 1/D FOR 60 D (STUDY DURATION: 60 D), Route [Inhibitor]: ORAL, Strain/Sex: SWISS/FEMALE, Target Tissue: Type of Lesion: UTERINE CERVIX: TUMOR, Dose [Carcinogen]: 300 UG IN BEESWAX IMPREGNATED COTTON THREAD INSERTED INTO CANAL OF UTERINE CERVIX FOR DURATION OF STUDY) is given as 2/23 (9%), 1/16 (6%), 33%, not significant; the “tumour outcome (control, treated, inhibition, significance)” value (Carcinogen: 3-METHYLCHOLANTHRENE, 56-49-5, Dose [Inhibitor]: 0, 1/200 OF A PILL CONTAINING 0.25 UG ETHINYLESTRADIOL AND 2.5 UG NORGESTREL 1/D FOR 90 D (STUDY DURATION: 90 D), Route [Inhibitor]: ORAL, Strain/Sex: SWISS/FEMALE, Target Tissue: Type of Lesion: UTERINE CERVIX: TUMOR, Dose [Carcinogen]: 300 UG IN BEESWAX IMPREGNATED COTTON THREAD INSERTED INTO CANAL OF UTERINE CERVIX FOR DURATION OF STUDY) is reported as 6/23 (26%), 1/29 (3%), 88%, p<0.05; the “tumour outcome (control, treated, inhibition, significance)” value (Carcinogen: 3-METHYLCHOLANTHRENE, 56-49-5, Dose [Inhibitor]: 0, 1/2000 OF A PILL CONTAINING 0.025 UG ETHINYLESTRADIOL AND 0.25 UG OF NORGESTREL 1/D FOR 60 D (STUDY DURATION: 60 D), Route [Inhibitor]: ORAL, Strain/Sex: SWISS/FEMALE, Target Tissue: Type of Lesion: UTERINE CERVIX: TUMOR, Dose [Carcinogen]: 300 UG IN BEESWAX IMPREGNATED COTTON THREAD INSERTED INTO CANAL OF UTERINE CERVIX FOR DURATION OF STUDY) was 2/23 (9%), 0/22 (0%), 100%, not significant; the “tumour outcome (control, treated, inhibition, significance)” value (Carcinogen: 3-METHYLCHOLANTHRENE, 56-49-5, Dose [Inhibitor]: 0, 1/2000 OF A PILL CONTAINING 0.025 UG ETHINYLESTRADIOL AND 0.25 UG OF NORGESTREL 1/D FOR 90 D (STUDY DURATION: 90 D), Route [Inhibitor]: ORAL, Strain/Sex: SWISS/FEMALE, Target Tissue: Type of Lesion: UTERINE CERVIX: TUMOR, Dose [Carcinogen]: 300 UG IN BEESWAX IMPREGNATED COTTON THREAD INSERTED INTO THE CANAL OF THE UTERINE CERVIX FOR THE DURATION OF STUDY) is on record as 6/23 (26%), 1/30 (3%), 88%, p<0.05.
